# From US9102648B1, “Bioavailable diacylhydrazine ligands for modulating the expression of exogenous genes via an ecdysone receptor complex” (Intrexon Corporation, priority 2003, dated 2015)
# Like-named read-outs stand apart in the source and are kept apart here.
# What was measured:
# [1] = target: GAL4 DBD-CfEcR(DEF)/VP16AD-MmRXRE (Choristoneura fumiferana, UniProt O77240); test: 13B3 Assay (CHO stable cell line, luciferase reporter); conditions: for Fold Induction, 13B3 Assay, 33 uM: 33 uM ligand
# Summary of the method: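 CHO 13B3 clone stably expressing GAL4 DBD–CfEcR(DEF) and VP16AD–MmRXR(DE) with GAL4 RE–luciferase reporter; cells plated 24 h at 37 °C, then treated with ligands (DMSO stocks diluted 300-fold), 8 concentrations 33–0.01 μM.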
# [2] = target: T1, Bombyx mori EcR (VP16 fusion, CVBE switch construct) (Bombyx mori, UniProt P49881); test: Z3 Assay (HEK-293 cells with CVBE and 6XEcRE LacZ, β-galactosidase reporter); conditions: for Fold Induction, Z3 Assay, 33 uM: 33 uM ligand; for Fold Induction, Z3 Assay, 33 uM / Fold Induction, Z3 Assay, 3.3 uM: ligand treated / DMSO treated cells; for Fold Induction, Z3 Assay, 3.3 uM: 3.3 uM ligand; for Z3 assay Rel Max FI: maximum fold induction at any concentration relative to that of GS-E ligand; for fold induction at 3.3 µM: HEK293, read-out: Fold Induction, Z3 Assay, 3.3 uM; for fold induction at 33 µM: HEK293, read-out: Fold Induction, Z3 Assay, 33 uM
# T1 sequence (P49881 86-606): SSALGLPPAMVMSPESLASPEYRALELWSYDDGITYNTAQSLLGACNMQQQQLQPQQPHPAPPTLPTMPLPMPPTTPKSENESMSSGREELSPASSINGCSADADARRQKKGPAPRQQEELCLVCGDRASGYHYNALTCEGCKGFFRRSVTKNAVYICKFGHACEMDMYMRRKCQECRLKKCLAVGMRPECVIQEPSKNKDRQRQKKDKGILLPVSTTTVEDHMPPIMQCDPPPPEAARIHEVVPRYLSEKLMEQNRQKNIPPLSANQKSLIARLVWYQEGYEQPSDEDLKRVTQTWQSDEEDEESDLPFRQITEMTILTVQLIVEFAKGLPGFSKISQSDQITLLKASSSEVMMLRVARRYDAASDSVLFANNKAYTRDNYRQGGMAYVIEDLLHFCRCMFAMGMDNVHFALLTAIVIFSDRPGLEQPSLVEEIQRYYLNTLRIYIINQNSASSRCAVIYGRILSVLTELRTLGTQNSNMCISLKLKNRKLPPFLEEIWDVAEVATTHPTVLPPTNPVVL
# T1 sequence (P19793 1-462 partner): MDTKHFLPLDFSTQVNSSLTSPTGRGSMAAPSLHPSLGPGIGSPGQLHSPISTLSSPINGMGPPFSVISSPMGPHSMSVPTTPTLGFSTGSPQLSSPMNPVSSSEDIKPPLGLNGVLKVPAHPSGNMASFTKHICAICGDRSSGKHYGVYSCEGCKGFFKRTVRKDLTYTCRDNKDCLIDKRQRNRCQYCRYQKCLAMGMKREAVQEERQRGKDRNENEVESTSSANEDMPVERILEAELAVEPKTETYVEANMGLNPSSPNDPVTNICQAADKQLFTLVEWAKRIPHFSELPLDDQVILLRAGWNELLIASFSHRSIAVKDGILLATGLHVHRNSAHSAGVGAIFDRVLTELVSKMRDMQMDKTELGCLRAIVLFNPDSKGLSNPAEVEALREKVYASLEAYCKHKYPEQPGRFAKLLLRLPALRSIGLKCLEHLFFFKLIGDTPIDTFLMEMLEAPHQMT
# [3] = RLU ligand treated / RLU DMSO treated cells, average of two wells
# [4] = read-out: Z3 assay EC50, HEK-293 Z3 cells, β-galactosidase reporter, average of two wells
Compound,"Fold Induction, Z3 Assay, 33 uM ([2]; average of two wells)","EC50 [2, 4] [nM]","Fold Induction, Z3 Assay, 3.3 uM ([2]; average of two wells)",Z3 assay Rel Max FI ([2]; HEK-293 Z3 cells),other results
CC(=O)c1ccc(C(=O)NN(C(=O)c2cc(C(=O)O)cc(C(=O)O)c2)C(C)(C)C)cc1 [RG-100150],1,–,–,–,"Fold Induction, 13B3 Assay, 33 uM [1, 3]: 1"
CC(O)c1ccc(C(=O)NN(C(=O)c2cc(F)cc(F)c2)C(C)(C)C)cc1 (stereo not shown) [RG-100342],427,10200,–,–,"Fold Induction, 13B3 Assay, 33 uM [1, 3]: 611"
COc1cccc(C(=O)N(NC(=O)c2ccc3c(c2C)OCCO3)C(C)(C)C)c1 [RG-100360],891,257,870,1.073,"Fold Induction, 13B3 Assay, 3.3 uM ([1]; 3.3 uM ligand, RLU ligand treated / RLU DMSO treated cells, average of two wells): 1111; Fold Induction, 13B3 Assay, 33 uM [1, 3]: 745; 13B3 assay Rel Max FI ([1]; maximum fold induction at any concentration relative to that of GS-E ligand, CHO 13B3 cells): 0.825; EC50 ([1]; read-out: 13B3 EC50, CHO 13B3 stable cell line, luciferase reporter, 48 h, average of two wells): 588 nM"
CCc1c(C(=O)NN(C(=O)c2ccc(F)c(C(F)(F)F)c2)C(C)(C)C)ccc2c1OCCO2 [RG-115280],376,–,–,–,–
"CCC(N(NC(=O)c1cccc(OC)c1C)C(=O)c1cc(C)cc(C)c1)C(C)(C)C (stereo not shown) [RG-115819, 3,5-dimethyl-benzoic acid N-(1-ethyl-2,2-dimethyl-propyl)-N′-(3-methoxy-2-methyl-benzoyl)-hydrazide]",–,–,–,0.915,EC50 [2]: 42 nM; fold induction at 3.3 µM [2]: 1430; fold induction at 33 µM [2]: 722
"CCC(N(NC(=O)c1cccc(OC)c1C)C(=O)c1cc(OC)c(C)c(OC)c1)C(C)(C)C (stereo not shown) [RG-115820, 3,5-dimethoxy-4-methyl-benzoic acid N-(1-ethyl-2,2-dimethyl-propyl)-N′-(3-methoxy-2-methyl-benzoyl)-hydrazide]",–,–,–,0.887,EC50 [2]: 203 nM; fold induction at 3.3 µM [2]: 1410; fold induction at 33 µM [2]: 701
CCCC(N(NC(=O)c1cccc(OC)c1C)C(=O)c1cc(C)cc(C)c1)C(C)(C)C (stereo not shown) [RG-115823],1050,20,1440,0.933,–
CCCC(N(NC(=O)c1cccc(OC)c1C)C(=O)c1cc(OC)c(C)c(OC)c1)C(C)(C)C (stereo not shown) [RG-115824],737,46,895,0.806,–
"CCCC(N(NC(=O)c1cccc(OC)c1CC)C(=O)c1cc(OC)c(C)c(OC)c1)C(C)(C)C (stereo not shown) [RG-115829, 3,5-Dimethoxy-4-methyl-benzoic acid N-(1-tert-butyl-butyl)-N′-(2-ethyl-3-methoxy-benzoyl)-hydrazide]",–,–,–,0.937,EC50 [2]: 58 nM; fold induction at 3.3 µM [2]: 1440; fold induction at 33 µM [2]: 319
CCCC(N(NC(=O)c1cccc(OC)c1CC)C(=O)c1cc(C)cc(C)c1)C(C)(C)C (stereo not shown) [RG-115830],983,45,1604,1.020,–
CCc1c(OC)cccc1C(=O)NN(C(=O)c1cc(OC)c(C)c(OC)c1)C(CC)C(C)(C)C (stereo not shown) [RG-115831],544,102,1481,0.937,–
CCc1c(OC)cccc1C(=O)NN(C(=O)c1cc(C)cc(C)c1)C(CC)C(C)(C)C (stereo not shown) [RG-115832],621,37,1564,1.002,–
